Data: paper PMC11506924, “Triterpenoid Saponins and Flavonoid Glycosides from the Flower of Camellia flavida and Their Cytotoxic and α-Glycosidase Inhibitory Activities” (International Journal of Molecular Sciences, 2024)

Experiments:
MDA-MB-231 = assay: MTT cytotoxicity assay, MDA-MB-231; assay type: cell-based, human; conditions: for IC50: Homo sapiens, MDA-MB-231, MTT, 24 h exposure, ± SD, n = 8
Excerpt: (§1) The human cervical cancer cell line Hela, the human lung adenocarcinoma cell line A549, the human breast cancer cell lines MCF-7 and MDA-MB-231, the human hepatoma cell lines BEL-7402 and Hep G2, the human embryonic lung fibroblast cell line MRC-5, and the human nasal epithelial cell line HNEpC were all sourced from the China Center for Type Culture Collection (CCTCC, Wuhan University, Hubei, China). Hela, A549, MCF-7, MDA-MB-231, BEL-7402, MRC-5, and Hep G2 cells were maintained in DMEM media, while HNEpC cells were cultured in RPMI 1640. All media were supplemented with 10% FBS (v/v) and 1% penicillin-streptomycin, and cells were grown in a humidified atmosphere containing 5% CO2 at 37 °C.
(§2) The MTT assay was conducted to assess cell viability, as previously described. Cells were seeded onto 96-well plates at a density of 1 × 10^4 cells per well, with each experiment replicated eight times to ensure reproducibility. […] Subsequently, 10 μL MTT reagent was added to each well, and the plates were incubated for a further 4 h at 37 °C, adhering strictly to the manufacturer’s instructions. The optical density (OD) values were then measured at 570 nm using a microplate reader. The cell survival rate for each compound was calculated employing the following formula: OD value of the experimental group−OD value of the blank group/OD value of the control group−OD value of Blank group×100%
(§3) Statistical analysis data from the cytotoxicity and α-glycosidase inhibitory assays were analyzed using the mean and standard deviation. The 50% cytotoxic and inhibitory concentrations were calculated and compared to the control via non-linear regression. These analyses were performed using SPSS® Statistics (Version 18.0, IBM Software, Armonk, NY, USA).

Hep G2 = assay: MTT cytotoxicity assay, Hep G2; assay type: cell-based; conditions: Homo sapiens, HepG2, 24 h exposure, ± SD, n = 8
Excerpt: as §1, §2, §3

[1] = MTT cytotoxicity assay, HNEpC (normal cells); assay type: cell-based; conditions: HNEpC cells (normal nasal epithelial cells), normal human nasal epithelial cells, 24 h exposure, n = 8
Excerpt: as §1
(§4) The MTT assay was conducted to assess cell viability, as previously described. Cells were seeded onto 96-well plates at a density of 1 × 10^4 cells per well, with each experiment replicated eight times to ensure reproducibility. Following incubation at 37 °C for 24 h, cells were exposed to various concentrations (0.25, 0.5, 1.0, 2.0, 4.0, 8.0, 16.0, 32.0 µM) of compounds 1–10 for 24 h. Subsequently, 10 μL MTT reagent was added to each well, and the plates were incubated for a further 4 h at 37 °C, adhering strictly to the manufacturer’s instructions. The optical density (OD) values were then measured at 570 nm using a microplate reader. The cell survival rate for each compound was calculated employing the following formula: OD value of the experimental group−OD value of the blank group/OD value of the control group−OD value of Blank group×100%
as §3

[2] = MTT cytotoxicity assay, MRC-5 (normal cells); assay type: cell-based; conditions: MRC-5 cells (normal embryonic lung fibroblasts), normal human embryonic lung fibroblast, 24 h exposure, n = 8
Excerpt: as §1, §4, §3

MCF-7 = assay: MTT cytotoxicity assay, MCF-7; assay type: cell-based; conditions: Homo sapiens, MCF7, 24 h exposure, ± SD, n = 8
Excerpt: as §1, §4, §3

BEL-7402 = assay: MTT cytotoxicity assay, BEL-7402; assay type: cell-based; conditions: Homo sapiens, 24 h exposure, ± SD, n = 8
Excerpt: as §1, §2, §3

Hela = assay: MTT cytotoxicity assay, Hela; assay type: cell-based; conditions: Homo sapiens, 24 h exposure, ± SD, n = 8
Excerpt: as §1, §2, §3

A549 = assay: MTT cytotoxicity assay, A549; assay type: cell-based; conditions: Homo sapiens, 24 h exposure, ± SD, n = 8
Excerpt: as §1, §2, §3

Compound | IC50 (MDA-MB-231) [µM] | IC50 (Hep G2) [µM] | IC50 at 24 h [1] [µM] | IC50 at 24 h [2] [µM] | IC50 (MCF-7) [µM] | IC50 (BEL-7402) [µM] | IC50 (Hela) [µM] | IC50 (A549) [µM] | inhibitory effect on MDA-MB-231 cells (in words) (MDA-MB-231; compared with positive control)
COC(=O)C1OC(OC2CCC3(C)C(CCC4(C)C3CC=C3C5CC(C)(C)CCC5(CO)C(O)C(O)C34C)C2(C)C)C(OC2OC(CO)C(O)C(O)C2O)C(OC2OC(CO)C(O)C(O)C2OC2OC(C)C(O)C(O)C2O)C1O [Compound 1, 3β,15α,16α,28-tetrahydroxyolean-12-en-3-O-β-D-glucopyranosyl-(1→2)-[α-L-rhamnopyranosyl-(1→2)-β-D-galactopyranosyl-(1→3)]-β-D-glucuronopyranoside methyl ester] | > 30 | 25.6 ± 3.46 | > 30 | > 30 | 9.06 ± 0.45 | 7.62 ± 1.06 | 15.1 ± 1.06 | > 30 | 
CC1OC(OC2C(OC3C(O)C(C(=O)O)OC(OC4CCC5(C)C(CCC6(C)C5CC=C5C7CC(C)(C)CCC7(CO)C(O)C(O)C56C)C4(C)C)C3OC3OC(CO)C(O)C(O)C3O)OC(CO)C(O)C2O)C(O)C(O)C1O [Compound 2, 3β,15α,16α,28-tetrahydroxyolean-12-en-3-O-β-D-glucopyranosyl-(1→2)-[α-L-rhamnopyranosyl-(1→2)-β-D-galactopyranosyl-(1→3)]-β-D-glucuronopyranoside] | 26.5 ± 3.07 | 14 ± 3.29 | > 30 | > 30 | 19.2 ± 3.71 | > 30 | 4.17 ± 0.85 | > 30 | 
CC1OC(OC2C(OC3C(O)C(C(=O)O)OC(OC4CCC5(C)C(CCC6(C)C5CC=C5C7CC(C)(C)CCC7(CO)C(=O)C(O)C56C)C4(C)C)C3OC3OC(CO)C(O)C(O)C3O)OC(CO)C(O)C2O)C(O)C(O)C1O [Compound 3, 3β,15α,28-trihydroxyolean-12-en-16-on-3-O-β-D-glucopyranosyl-(1→2)-[α-L-rhamnopyranosyl-(1→2)-β-D-galactopyranosyl-(1→3)]-β-D-glucuronopyranoside] | 10.1 ± 2.28 | 8.77 ± 1.56 | > 30 | > 30 | 1.65 ± 0.39 | 4.94 ± 0.41 | > 30 | 23.4 ± 7.26 | comparable to that of cisplatin
CC1OC(OC2C(OC3C(OC4C(=O)c5c(O)cc(O)cc5OC4c4ccc(O)cc4)OC(C)C(O)C3O)OC(CO)C(O)C2O)C(O)C(O)C1O [Compound 4, (2R,3R)-3,5,7,4′-tetrahydroxyflavanone-3-O-α-L-rhamnopyranosyl-(1→2)-β-D-glucopyranosyl-(1→2)-α-L-rhamnoside] | > 30 | > 30 | > 30 | > 30 | > 30 | > 30 | > 30 | > 30 | 
CC(=O)OC1C(O)C(C)OC(OC2C(OC3C(OC4C(=O)c5c(O)cc(O)cc5OC4c4ccc(O)cc4)OC(C)C(O)C3O)OC(CO)C(O)C2O)C1O [Compound 5, (2R,3S)-3,5,7,4′-tetrahydroxyflavanone-3-O-[3-acetyl-O-α-L-rhamnopyranosyl-(1→2)-β-D-glucopyranosyl-(1→2)]-α-L-rhamnoside] | > 30 | 20.8 ± 3.79 | > 30 | > 30 | > 30 | > 30 | > 30 | > 30 | 
CC(=O)OC1C(C)OC(OC2C(OC3C(OC4C(=O)c5c(O)cc(O)cc5OC4c4ccc(O)cc4)OC(C)C(O)C3O)OC(CO)C(O)C2O)C(O)C1O [Compound 6, (2R,3R)-3,5,7,4′-tetrahydroxyflavanone-3-O-[4-acetyl-O-α-L-rhamnopyranosyl-(1→2)-β-D-glucopyranosyl-(1→2)]-α-L-rhamnoside] | > 30 | > 30 | > 30 | > 30 | > 30 | 11.4 ± 3.11 | > 30 | > 30 | 
C[C@@H]1O[C@@H](OC[C@H]2O[C@@H](Oc3c(-c4ccc(O)c(O)c4)oc4cc(O)cc(O)c4c3=O)[C@H](OC(=O)/C=C/c3ccc(O)cc3)[C@@H](O[C@@H]3OC[C@H](O)[C@H](O)[C@H]3O)[C@@H]2O)[C@H](O)[C@H](O[C@@H]2OC[C@@H](O)[C@H](O)[C@H]2O)[C@H]1O [Compound 7, 3,5,7,3′,4′-pentahydroxyflavonol-3-O-α-L-arabinopyranosyl-(1→3)-[β-D-xylopyranosyl-(1→3)-α-L-rhamnopyranosyl-(1→6)]-2-O-p-E-coumaryl-β-D-glucopyranoside] | > 30 | > 30 | > 30 | > 30 | > 30 | > 30 | > 30 | > 30 | 
COc1cccc2c1C(=O)c1c(O)c3c(c(O)c1C2=O)C[C@@](O)(C(=O)CO)C[C@@H]3O[C@H]1C[C@H](N)[C@H](O)[C@H](C)O1 [doxorubicin, reference compound] |  |  |  |  | 3.79 ± 0.26 |  |  |  | 
